From US20220304907A1, “Oral Care Compositions” (Colgate-Palmolive Company, priority 2019, published 2022) come the findings set out here.

This assay concerns LL-37. Put plainly: LL-37 expression (qPCR) in OKF6 gingival epithelial cells after overnight treatment. It counts as cell-based. To be noted: topical application to gingival epithelial cells (GEC). As to the method:
OKF6 Cells (Gingival epithelial cells) were grown in 6 well tissue culture plates. Cells monolayer was treated with indicated doses (FIG. 1) of Vitamin D3 or phenylbutyrate alone or in combinations of two and cells were further incubated in tissue culture incubator for overnight incubation. After overnight incubation, cells were harvested in RNA lysis buffer. Lysates were processed for RNA isolation using Qiagen RNA isolation kit. RNA was processed for c-DNA preparation and further amplified (qPCR) using LL-37 (Hs 01011708_m1), Cyp24A1 (Hs00989018_m1), GAPDH (Hs 99999905_m1) Taqman genes specific probes. QPCR data was analyzed for fold induction of LL-37 expression and relative difference of expressions was plotted. […] As illustrated by the data described in FIGS. 1 and 2, the inventive combinations of the present invention provide a synergistic increase in LL-37 and CYP24A1, respectively.
(In qPCR the cycle at which signal appears reflects the starting amount.)

With `C=C1/C(=C\C=C2/CCC[C@]3(C)[C@@H]([C@H](C)CCCC(C)(C)O)CC[C@@H]23)C[C@@H](O)C[C@@H]1O` [1,25(OH)2D3, 1,25-dihydroxycholecalciferol], the “expression of anti-microbial peptide (LL-37) proteins” value was “enhanced expression”.
